# Measured values reported in US4965259A, “Dioxazocine derivatives compositions and methods containing them having antidepressive, spasmolytic, anticonvulsive, and antiarrhythmic properties” (EGIS Gyogyszergyar, priority 1987, dated 1990).
# “And” between values parts separate entries of the source, which are not always exact repeats. Equal values may be shown once. Where a name gives a salt, the structure may show the parent alone. Read-outs that look alike come from different tables or passages of the source.
# Experiments:
# [1] = tested on: tremor induced by tremorine; test: Inhibition of tremor induced by tremorine on mice; assay type: in vivo; conditions: for ED50: Mus musculus, po, 1 h before tremorine 20 mg/kg i.p., evaluated 45 minutes after tremorine; for Therapeutical index LD50/ED50: tremorine tremor, p.o.
# Protocol: The tests were carried out according to Everett [Science, 124, 79 (1956)]. Tremor was induced by tremorine [1,1'-(2-butynylene)-dipyrrolidine] administered intraperitoneally at a dosage of 20 mg/kg. The compounds to be examined were given perorally to the animals one hour prior to the administration of tremorine, and the tremor developed was evaluated 45 minutes after the administration of tremorine.
# [2] = Acute toxicity on white mice (LD50 p.o.); parameters: species or system strain CFLP, both sexes; conditions: mouse, in vivo, po
# Protocol: Acute toxicity of the compounds was tested on white mice of both sexes from the strain CFLP in groups consisting of 10 animals weighing 18 to 22 g. The compounds to be tested were administered perorally in a volume of 20 ml/kg. […] The animals could consume tap water and standard mouse feed ad libitum. The LD50 -values were determined according to Litchfield and Wilcoxon [J. Pharmacol. Exp. Ther., 96, 99 (1949)].
# [3] = tested on: electroshock provoked by electric current; test: Anticonvulsive activity on mice (inhibition of electroshock); assay type: in vivo; conditions: for ED50: Mus musculus, po
# Protocol: The tests were carried out according to the method of Swinyard et al. [I. Pharmacol. Exp. Ther., 106, 319-330 (1952)] which method is based on the inhibition of electroshock provoked by electric current on mice. The compounds to be tested were administered perorally. One hour later electroshocks were given by using corneal electrodes. The frequency of the electroshocks was 50 Hz, the current intensity 45 mA and the duration 0.4 sec. The full inhibition of the tonic-extensoric spasm on the hind limbs was considered as the criterium of the anticonvulsive activity. As reference compound phenobarbital, trimetadone and traboxopin were used.
# [4] = tested on: tonic-extensoric spasms on the hind limbs (pentetrazole); test: Spasmolytic action on mice (pentetrazole-induced tonic-extensoric spasms); assay type: in vivo, white mice; conditions: for ED50: Mus musculus, po; for Therapeutical index LD50/ED50: pentetrazole spasm
# Protocol: The tests were carried out according to the method of Banzinger and Hane which was adapted to white mice [Arch. Int. Pharmacolyn., 167, 245-249 (1959)]. The test animals were treated perorally with the compounds to be tested. One hour after the administration pentetrazole (6,7,8,9,-tetrahydro-5H-tetrazolozepine) was given intraperitoneally in a dosis of 125 mg/kg. The tonic-extensoric spasms on the hind limbs were registered.
# [5] = tested on: sleep induced with hexobarbital; test: Narcosis potentiating activity (sleep induced with hexobarbital on mice); assay type: in vivo; conditions: for Therapeutical index LD50/ED50: p.o.; for ED50: Mus musculus, po, 1 h before hexobarbital 40 mg/kg i.v., positive = sleep exceeding control mean by factor 2,5
# Protocol: Groups consisting of 6 mice each were treated with the compound to be examined, perorally. After one hour, hexobarbital [5-(1-cyclohexenyl)-1,5-dimethylbarbituric acid] was injected, intravenously, at a dosage of 40 mg/kg. The control group was treated only with hexobarbital to provoke sleep. The duration of sleep was recorded. If the duration of sleep of an animal exceeded that of the mean value of the control group by a factor of 2,5, it was considered as a positive reaction. From the data referring to the animals indicating a positive reaction, the ED50 -value was calculated. From the values of LD50 and ED50, the therapeutical index was determined for each compound tested.
# mice = test: Motility inhibiting activity (Dews equipment); assay type: in vivo; conditions: for ED50: Mus musculus, po, 0.5 h, interruptions of infrared beam within 30 minutes; for Therapeutical index LD50/ED50: motility inhibition, p.o.
# Protocol: The tests were performed according to the method of Borsy et al. [Arch. Int. Pharmacolyn., 124, 1-2 (1960)]. […] Then the test animals were placed in a Dews equipment. In this equipment the number of interruptions of infrared beam within 30 minutes was counted. The percentual deviation from the number of interruptions in the case of the control group was determined in each group, then the ED50 -values and therapeutical indexes were calculated.
# tetrabenazine ptosis = test: Antagonism of tetrabenazine ptosis on mice; conditions: for ED50: Mus musculus, po; for Therapeutical index LD50/ED50: tetrabenazine ptosis, mice, p.o.
# Protocol: Groups consisting of 10 mice each were treated, perorally, with different doses of the compounds to be tested. The control group was treated only with the corresponding carrier. After 30 minutes, tetrabenazine [3-isobutyl-9,10-dimethoxy-1,2,3,4,6,7-hexahydrobenzo[a]quinolizine-2-one]was administered intraperitoneally at a dosage of 50 mg/kg. The number of animals having closed palpebral fissure was determined in each group after 30, 60, 90 and 120 minutes. Then, the mean value of ptosis was calculated in each group, and the deviation from that of the control group (i.e. the inhibition) was expressed in percentage. From the data obtained, the ED50 -value and the therapeutical index were determined for each novel compound tested as well as for amitryptiline [5-(3-dimethylaminopropylidine)-10,11-dihydro-5H-dibenzo[a,d]cycloheptene hydrochloride] and traboxopin [2-chloro-12(3-dimethylamino-2-methylpropyl)-12H-dibenzo[d,g][1,3,6]dioxazocine] employed for comparison.
# [6] = tested on: arrhythmia provoked by aconitine; test: Antiarrhythmic activity on rats (arrhythmia provoked by aconitine); assay type: in vivo; conditions: p.o., 4 mg/kg, 30 minutes prior to aconitine 75 μg/kg i.v.
# Protocol: The antiarrhythmic activity of the novel compounds was examined by influencing the arrhythmia provoked by aconitine on rats weighing 160 to 200 g according to a modified method of Marmo et al. [Arzneim.-Forsch., 20, 12 (1970)]. The animals were anaesthetized by the administration of 1.2 g/kg of ethyl urethane, intraperitoneally. Aconitine was given at a dosage of 75 μg/kg, intravenously. The compounds to be tested were administered perorally 30 minutes prior to the treatment with aconitine. In the test, lidocaine and quinidine was employed for comparison.
# [7] = white mice, p.o., 7 days observation, Litchfield and Wilcoxon, read-out: LD50 p.o.
# [8] = mice, p.o., 1 h before electroshock (50 Hz, 45 mA, 0.4 sec), full inhibition of tonic-extensoric spasm, read-out: ED50
# [9] = mice, p.o., 1 h before pentetrazole 125 mg/kg i.p., read-out: ED50
SMILES,ED50 [1] [mg/kg],Therapeutical index LD50/ED50 [1],"Therapeutical index LD50/ED50 ([4]; mice, p.o.)",Therapeutical index LD50/ED50 ([5]; narcosis potentiation),ED50 (mice) [mg/kg],Therapeutical index LD50/ED50 (mice),"ED50 [4, 9] [mg/kg]",further results
"CC(C)NCCCN1c2ccccc2OCOc2ccc(Cl)cc21 [Example 2, 2-Chloro-12-(3-isopropylaminopropyl)-12H-dibenzo[d,g][1,3,6]dioxazocine maleate]",5.2,134.6,–,–,–,–,–,"LD50 at 168 h [2, 7]: 700 mg/kg"
"CCC1(c2ccccc2)C(=O)NC(=O)NC1=O [phenobarbital, 5-ethyl-5-phenylbarbituric acid]",–,–,8.8,–,–,–,–,"ED50 [3]: 24.5 mg/kg; Therapeutical index LD50/ED50 ([3]; electroshock, mice, p.o.): 6.8; ED50 [4]: 19 mg/kg"
"CC(CN(C)C)CN1c2ccccc2OCOc2ccc(Cl)cc21 (centres unmarked) [traboxopin, 2-chloro-12-(3-dimethylamino-2-methylpropyl)-12H-dibenzo[d,g][1,3,6]dioxazocine]",25,10.8,8.4,10.8,25,10.8,32,"LD50 at 168 h ([2]; reference compounds, printed in Table II, read-out: LD50): 270 mg/kg; ED50 [3, 8]: 54 mg/kg; Therapeutical index LD50/ED50 ([3]; electroshock, mice, p.o.): 5.0"
"CN1C(=O)OC(C)(C)C1=O [trimetadione, 3,5,5-trimethyl-oxazolidine-2,4-dione]",–,–,5.5,–,–,–,400,"ED50 [3, 8]: 490 mg/kg"
"CNCC(C)CN1c2ccccc2OCOc2ccc(Cl)cc21 (centres unmarked) [Example 3, 2-Chloro-12-(3-methylamino-2-methylpropyl)-12H-dibenzo[d,g][1,3,6]dioxazocine hydrochloride]",6.4,78.1,26.3,208,27,18.50,19,"ED50 [5]: 2.4 mg/kg; Therapeutical index compared with the known reference compounds ([5]; narcosis potentiation, statement on Table II): several times higher than that of the known reference compounds; LD50 at 168 h [2, 7]: 500 mg/kg"
"CN(C)CCC=C1c2ccccc2CCc2ccccc21 [amitryptiline, 5-(3-dimethylaminopropylidine)-10,11-dihydro-5H-dibenzo[a,d]cycloheptene hydrochloride]",–,–,–,–,–,–,–,ED50 (tetrabenazine ptosis): 12 mg/kg; Therapeutical index LD50/ED50 (tetrabenazine ptosis): 18.7
"CNC1=Nc2ccc(Cl)cc2C(c2ccccc2)=[N+]([O-])C1 [chlordiazepoxide, 7-chloro-2-methylamino-5-phenyl-3H-1,4-benzodiazepine-4-oxide]",–,–,–,62.0,60,10.3,–,ED50 [5]: 10 mg/kg
"CNCCCN1c2ccccc2OCOc2ccc(Cl)cc21 [Example 4, 2-Chloro-12-(3-methylaminopropyl)-12H-dibenzo[d,g][1,3,6]dioxazocine maleate]",–,–,28.8,–,–,–,25,"Inhibition in percentage ([6]; maleate): 90.9% and 90%; LD50 at 168 h [2, 7]: 720 mg/kg; ED50 [3]: 40 mg/kg; Therapeutical index LD50/ED50 ([3]; electroshock, mice, p.o.): 19; Therapeutic index compared with that of the reference compounds ([3]; electroshock, mice, statement on Table VII): 3-5 fold; ED50 (tetrabenazine ptosis): 7.3 mg/kg; Therapeutical index LD50/ED50 (tetrabenazine ptosis): 98.6"
OC(CCN1CCCCC1)(c1ccccc1)C1CCCCC1 (centres unmarked) [trihexyphenidyl],15,24.3,–,–,–,–,–,–
"CCCC(C)(COC(N)=O)COC(N)=O [meprobamate, 2-methyl-2-propylpropandiol-1,3-dicarbamate]",–,–,–,4.2,270,4.1,–,ED50 [5]: 260 mg/kg
C=C[C@H]1C[N@@]2CC[C@H]1C[C@@H]2[C@@H](O)c1ccnc2ccc(OC)cc12 [quinidine],–,–,–,–,–,–,–,Inhibition in percentage [6]: 27.3%
CCN(CC)CC(=O)Nc1c(C)cccc1C [lidocaine],–,–,–,–,–,–,–,Inhibition in percentage [6]: 23.4%
